Test results reported in PubChem BioAssay AID192 (DTP/NCI, 2004).
Values joined by “and” are separate entries in the source; they are usually repeats but may differ in a detail not shown here. Identical values can stand only once. Inconclusive results and toxic doses are left out.

Test system: BDF1 mice, B16 melanoma ip, median survival T/C
Experiment: NCI In Vivo Anticancer Drug Screen. Data for tumor model B16 Melanoma (intraperitoneal) in B6D2F1 (BDF1) mice
Settings: endpoint: median survival time, higher = longer survival
How it was run: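 Read-out: survival or tumor size, given as treated/control ratio. Controls received vehicle only; animals bore transplantable tumors.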

[1] = dose: 1.0 mg/kg/injection, schedule: Q01DX009 (ip), vehicle: saline with Tween-80
[2] = dose: 6.25 mg/kg/injection, schedule: Q01DX009 (ip), vehicle: saline
[3] = dose: 12.5 mg/kg/injection, schedule: Q01DX009 (ip), vehicle: Klucel (hydroxypropylcellulose) (HPC)
[4] = dose: 25.0 mg/kg/injection, schedule: Q01DX009 (ip), vehicle: Klucel (hydroxypropylcellulose) (HPC)
[5] = dose: 50.0 mg/kg/injection, schedule: Q01DX009 (ip), vehicle: Klucel (hydroxypropylcellulose) (HPC)

SMILES: N=Cc1c(O)[nH]c(=O)[nH]c1=O
- T/C (dose: 150.0 mg/kg/injection, schedule: Q01DX009 (ip), vehicle: Klucel (hydroxypropylcellulose) (HPC)): 87 % of control
- T/C (dose: 300.0 mg/kg/injection, schedule: Q01DX009 (ip), vehicle: Klucel (hydroxypropylcellulose) (HPC)): 95 % of control

SMILES: C=CCOCC(O)CN(CC)c1ccccc1 (configuration not stated)
- T/C (dose: 75.0 mg/kg/injection, schedule: Q04DX003 (ip), vehicle: Klucel (hydroxypropylcellulose) (HPC)): 89 % of control
- T/C (dose: 150.0 mg/kg/injection, schedule: Q04DX003 (ip), vehicle: Klucel (hydroxypropylcellulose) (HPC)): 89 % of control
- T/C (dose: 300.0 mg/kg/injection, schedule: Q04DX003 (ip), vehicle: Klucel (hydroxypropylcellulose) (HPC)): 98 % of control

SMILES: CC1=CC(=O)C(O)C2(C)C1CC(O)C13COC4(C)C(OC(=O)C41)C(O)C23 (configuration not stated)
- T/C [1]: 97 % of control
- T/C (dose: 2.0 mg/kg/injection, schedule: Q01DX009 (ip), vehicle: saline with Tween-80): 101 % of control
- T/C (dose: 4.0 mg/kg/injection, schedule: Q01DX009 (ip), vehicle: saline with Tween-80): 97 % of control

SMILES: N=C(N)c1ccc(/C=C/c2ccc(C(=N)N)cc2O)cc1
- T/C (dose: 3.12 mg/kg/injection, schedule: Q01DX009 (ip), vehicle: water): 105 % of control and 107 % of control
- T/C (dose: 6.25 mg/kg/injection, schedule: Q01DX009 (ip), vehicle: water): 88 % of control and 101 % of control
- T/C (dose: 12.5 mg/kg/injection, schedule: Q01DX009 (ip), vehicle: water): 101 % of control and 107 % of control
- T/C (dose: 25.0 mg/kg/injection, schedule: Q01DX009 (ip), vehicle: water): 97 % of control and 114 % of control
- T/C (dose: 50.0 mg/kg/injection, schedule: Q01DX009 (ip), vehicle: water): 93 % of control and 104 % of control

SMILES: COC1=C(N2CC2)C(=O)C(OC)=C(N2CC2)C1=O
- T/C (dose: 0.25 mg/kg/injection, schedule: Q01DX009 (ip), vehicle: other): 112 % of control and 118 % of control
- T/C [1]: 179 % of control
- T/C (dose: 2.0 mg/kg/injection, schedule: Q01DX009 (ip), vehicle: other): 169 % of control

SMILES: c1cc[c]([Sn]([c]2ccccc2)([c]2ccccc2)[n]2cccc2)cc1
- T/C [2]: 115 % of control

SMILES: CC12CCC(O)CC1CCC1C2CCC2(C)C(c3ccc(=O)oc3)C(O)C3OC132 (configuration not stated)
- T/C (dose: 0.94 mg/kg/injection, schedule: Q01DX009 (ip), vehicle: Klucel (hydroxypropylcellulose) (HPC)): 103 % of control
- T/C (dose: 1.87 mg/kg/injection, schedule: Q01DX009 (ip), vehicle: Klucel (hydroxypropylcellulose) (HPC)): 98 % of control
- T/C (dose: 3.5 mg/kg/injection, schedule: Q01DX009 (ip), vehicle: Klucel (hydroxypropylcellulose) (HPC)): 94 % of control

SMILES: O=C1C=C[C@H](O)[C@@]2(CO)O[C@@H]12
- T/C (dose: 1.25 mg/kg/injection, schedule: Q01DX009 (ip), vehicle: saline with Tween-80): 101 % of control
- T/C (dose: 2.5 mg/kg/injection, schedule: Q01DX009 (ip), vehicle: saline with Tween-80): 101 % of control
- T/C (dose: 5.0 mg/kg/injection, schedule: Q01DX009 (ip), vehicle: saline with Tween-80): 122 % of control
- T/C (dose: 10.0 mg/kg/injection, schedule: Q01DX009 (ip), vehicle: saline with Tween-80): 104 % of control

SMILES: Cc1cccc(C)c1NS(=O)(=O)c1ccccc1
- T/C (dose: 200.0 mg/kg/injection, schedule: Q01DX009 (ip), vehicle: Klucel (hydroxypropylcellulose) (HPC)): 87 % of control
- T/C (dose: 400.0 mg/kg/injection, schedule: Q01DX009 (ip), vehicle: Klucel (hydroxypropylcellulose) (HPC)): 92 % of control

SMILES: O=C1c2ccccc2C(=O)c2c(NCCNCCO)ccc(O)c21
- T/C (dose: 2.5 mg/kg/injection, schedule: Q01DX009 (ip), vehicle: suspension in saline): 110 % of control
- T/C (dose: 5.0 mg/kg/injection, schedule: Q01DX009 (ip), vehicle: suspension in saline): 119 % of control
- T/C (dose: 10.0 mg/kg/injection, schedule: Q01DX009 (ip), vehicle: suspension in saline): 119 % of control
- T/C (dose: 20.0 mg/kg/injection, schedule: Q01DX009 (ip), vehicle: suspension in saline): 171 % of control
- T/C (dose: 80.0 mg/kg/injection, schedule: Q01DX009 (ip), vehicle: suspension in saline): 181 % of control

SMILES: CC(C)NCC(O)COc1cccc2ccccc12 (configuration not stated)
- T/C (dose: 4.0 mg/kg/injection, schedule: Q01DX009 (ip), vehicle: Klucel (hydroxypropylcellulose) (HPC)): 99 % of control and 112 % of control
- T/C (dose: 8.0 mg/kg/injection, schedule: Q01DX009 (ip), vehicle: Klucel (hydroxypropylcellulose) (HPC)): 101 % of control
- T/C (dose: 16.0 mg/kg/injection, schedule: Q01DX009 (ip), vehicle: Klucel (hydroxypropylcellulose) (HPC)): 98 % of control and 108 % of control
- T/C (dose: 32.0 mg/kg/injection, schedule: Q01DX009 (ip), vehicle: Klucel (hydroxypropylcellulose) (HPC)): 91 % of control and 95 % of control
- T/C (dose: 64.0 mg/kg/injection, schedule: Q01DX009 (ip), vehicle: Klucel (hydroxypropylcellulose) (HPC)): 97 % of control and 101 % of control

SMILES: CC(=O)CC(=O)NCc1ccncc1
- T/C (dose: 100.0 mg/kg/injection, schedule: Q01DX009 (ip), vehicle: saline): 118 % of control
- T/C (dose: 200.0 mg/kg/injection, schedule: Q01DX009 (ip), vehicle: saline): 112 % of control
- T/C (dose: 400.0 mg/kg/injection, schedule: Q01DX009 (ip), vehicle: saline): 116 % of control

SMILES: CCN(CC)CCCC(C)Nc1c2ccc(Cl)cc2nc2cc(Cl)ccc12 (configuration not stated)
- T/C [3]: 106 % of control
- T/C [4]: 106 % of control
- T/C [5]: 122 % of control

SMILES: COc1ccc(CC2C(=O)NC(C)C(=O)N(C)C3C(=O)N(C)C(Cc4ccc(O)c(c4)Oc4ccc(cc4)C3O)C(=O)NC(C)C(=O)NC(C)C(=O)N2C)cc1 (configuration not stated)
- T/C (dose: 0.5 mg/kg/injection, schedule: Q01DX009 (ip), vehicle: saline with Tween-80): 152 % of control
- T/C (dose: 125.0 micrograms/kg/injection, schedule: Q01DX009 (ip), vehicle: saline with Tween-80): 118 % of control

SMILES: C=C1C(=O)OC2/C=C(\CO)C(OC(C)=O)CC(O)/C(C)=C/C(OC(=O)C(C)CC)C12 (configuration not stated)
- T/C (dose: 1.56 mg/kg/injection, schedule: Q01DX009 (ip), vehicle: Klucel (hydroxypropylcellulose) (HPC)): 108 % of control
- T/C (dose: 3.13 mg/kg/injection, schedule: Q01DX009 (ip), vehicle: Klucel (hydroxypropylcellulose) (HPC)): 101 % of control
- T/C (dose: 6.25 mg/kg/injection, schedule: Q01DX009 (ip), vehicle: Klucel (hydroxypropylcellulose) (HPC)): 109 % of control

SMILES: C=CCN(CC=C)CCN(CC)CC
- T/C [2]: 93 % of control
- T/C (dose: 12.5 mg/kg/injection, schedule: Q01DX009 (ip), vehicle: saline): 94 % of control
- T/C (dose: 25.0 mg/kg/injection, schedule: Q01DX009 (ip), vehicle: saline): 94 % of control
- T/C (dose: 50.0 mg/kg/injection, schedule: Q01DX009 (ip), vehicle: saline): 91 % of control

SMILES: CCOCCc1ccccn1
- T/C (dose: 12.5 mg/kg/injection, schedule: Q04DX003 (ip), vehicle: saline): 106 % of control
- T/C (dose: 25.0 mg/kg/injection, schedule: Q04DX003 (ip), vehicle: saline): 100 % of control
- T/C (dose: 50.0 mg/kg/injection, schedule: Q04DX003 (ip), vehicle: saline): 96 % of control

SMILES: Cc1ccc(C)c(NC(=O)c2ccc(Cl)cc2Cl)c1
- T/C (dose: 100.0 mg/kg/injection, schedule: Q04DX003 (ip), vehicle: saline with Tween-80): 100 % of control
- T/C (dose: 200.0 mg/kg/injection, schedule: Q04DX003 (ip), vehicle: saline with Tween-80): 94 % of control
- T/C (dose: 400.0 mg/kg/injection, schedule: Q04DX003 (ip), vehicle: saline with Tween-80): 88 % of control

SMILES: O=C(O)CC[P+](c1ccccc1)(c1ccccc1)c1ccccc1
- T/C (dose: 100.0 mg/kg/injection, schedule: Q04DX003 (ip), vehicle: saline): 101 % of control
- T/C (dose: 200.0 mg/kg/injection, schedule: Q04DX003 (ip), vehicle: saline): 116 % of control
- T/C (dose: 400.0 mg/kg/injection, schedule: Q04DX003 (ip), vehicle: saline): 116 % of control

SMILES: Oc1ccc(/C=N/Nc2nnc(N/N=C/c3ccc(O)cc3O)c3ccccc23)c(O)c1
- T/C (dose: 3.13 mg/kg/injection, schedule: Q01DX009 (ip), vehicle: suspension in saline): 101 % of control
- T/C (dose: 6.25 mg/kg/injection, schedule: Q01DX009 (ip), vehicle: suspension in saline): 98 % of control
- T/C (dose: 12.5 mg/kg/injection, schedule: Q01DX009 (ip), vehicle: suspension in saline): 89 % of control
- T/C (dose: 25.0 mg/kg/injection, schedule: Q01DX009 (ip), vehicle: suspension in saline): 90 % of control

SMILES: O=C(Nc1ccccc1F)c1ccc(C(=O)Nc2ccccc2F)cc1
- T/C [3]: 100 % of control
- T/C [4]: 105 % of control
- T/C [5]: 101 % of control
